In paper PMC11188489, “Pharmacokinetic assessment of tacrolimus in combination with deoxyschizandrin in rats” (Frontiers in Pharmacology, 2024):
“Also recorded” adds a separate entry of the source.

Legend:
[1] = Pharmacokinetics of deoxyschizandrin in rats after single and multiple administrations (UHPLC-MS/MS of plasma); type: in vivo, SD rats; conditions: for AUMC0→t / AUC(0-t) / AUC(0-inf) / Cmax / MRT / Tmax / half-life: rat plasma; for AUC(0-t) / AUC(0-inf) / Cmax / MRT / Tmax / half-life: male, SD, rat, plasma
Protocol: The mobile phase A was acetonitrile, and mobile phase B was 0.1% formic acid in water, and the initial mobile phase of gradient elution program was consisted of 60% phase A and 40% phase B. The sample injection volume was set at 10 μL. Gradient elution program was supplied in Supplementary Table S1.
The mass spectrometry detection was achieved on an Agilent 6460A mass spectrometer with ESI source. […] The settings of the mass spectrometer source were as follows: capillary voltage 4,000 V, sheath gas flow 12 L/min, temperature 400°C, dry gas (nitrogen) flow 10 L/min and temperature 350°C, nebulizer pressure 45 psi. All analytes were detected in positive ionization mode. Collision gas (high purity liquid nitrogen) was set at 0.25 MPa. The structures of both two analytes and IS are display in Figure 1.
The pretreatment was performed for the plasma sample by one-step protein precipitation, Briefly, 100 μL sample was transferred into a 1.5 mL EP tube prior to adding with 300 μL methanol(containing 200 ng/mL IS). The mixture was vortex-mixed for 30 s before centrifugation at 17,400 g for 10 min at room temperature, and 100 μL of the supernatant was diluted with 100 μL of acetonitrile (v/v, 1:1) Then, a 10 μL aliquoted of diluted solution was injected into the UHPLC-MS/MS system for analysis.
The protocol of the animal study was approved by the Experimental Animal Ethics Committee of the Shanghai University of Traditional Chinese Medicine. Specific Pathogen Free (SPF) grade SD rats, male, 8 weeks old, 200–250 g, were obtained from the animal experiment center of Shanghai University of Traditional Chinese Medicine. After passing quarantine, the rats were adaptive fed for 2 days. Rats were fasted for 12–14 h, followed by the initiation of pharmacokinetic study of Tac and deoxyschizandrin. This animal study was carried out in accordance with the National Institutes of Health Guide for the Care and Use of Laboratory animals.
(§1) In this study, 42 rats were divided equally into seven groups of six rats each, numbered NG2201-NG2207. Among them, the NG2201 and NG2202 group was dosed with 150 mg/kg deoxyschizandrin alone to study the PK of deoxyschizandrin in rats after single and multiple doses; the NG2203 group was administrate dosed with 1.0 mg/kg of Tac; the NG2204-NG2206 groups were dosed with 75, 150, and 300 mg/kg of deoxyschizandrin plus 1.0 mg/kg Tac, respectively, and the NG2207 group was dosed with the Wuzhi capsule (approximately equal to 150 mg/kg of deoxyschizandrin) plus 1.0 mg/kg of Tac ([Teng et al., 2022]). The detailed dosing regimen is shown in Table 2, and all dose in this experiment were calculated according to clinical dose. Blood samples (approximately 300 μL for each) for PK analysis were collected into lithium–heparin tubes. The plasma sampling schedules are outlined below: Blood samples were drawn pre-dose, at 5, 10, 20 and 30 min, and at 1, 1.5, 2, 4, 8 and 24 h after drug administration. The blood samples were centrifuged at 5,000 g for 15 min at 4°C to collect plasma samples, which were placed −80 refrigerator.
The rat plasma collected from each group was pretreated according to the method in section 2.5, and exposure levels of Tac and deoxyschizandrin were determined using the above established UHPLC-MS/MS method and the PKs were calculated using DAS software using non-compartment model (version 2.0, China Pharmacological Society). The data were presented as mean ± SD.

[2] = Observation of adverse reactions in rats during 12 days of continuous administration; type: in vivo; conditions: 150 mg/kg deoxyschizandrin oral
Protocol: as §1, with “refrigerator. […]” for “refrigerator.”

[3] = Stability of the two analytes in rat plasma under different storage conditions; type: in vitro ADME; conditions: n=5
Protocol: To prepare the stock solution, approximately 2.00 mg of Tac, deoxyschizandrin and IS were accurately weighed and dissolved in methanol, respectively. The stock solutions of Tac and deoxyschizandrin with a final concentration of 1.00 mg/mL was obtained, and the IS stock solution was diluted to 100.00 ng/mL using methanol before use. The stock solutions were aliquoted and stored at −80°C. Combined working solutions were prepared by diluting the stock solution using 10% aqueous methanol at the following concentrations: 5.00, 10.00, 20.00, 50.00, 100.00, 200.00, 500.00, 1,000.00, and 2,000.00 ng/mL. Blank rat plasma was used to prepare the calibration standards. Quality-control (QC) samples of two analytes were prepared separately in the same manner at three concentrations, namely, 10 (low concentration), 100 (middle), 1,000 ng/mL (high), and all QC samples were stored at −80°C.
The methodology validation was completed according to FDA guidelines and Chinese Pharmacopoeia (2015 edition), and the linearity, inter- and intra-precision and accuracy, matrix effect and extraction recovery, stability and specificity of this method were validated according to previous study ([Lu et al., 2022]; [Wang et al., 2022]; [Shu et al., 2016]).

[4] = po, 150 mg/kg, NG2201: 150 mg/kg deoxyschizandrin single, D1-D2
[5] = po, 150 mg/kg, NG2202: 150 mg/kg deoxyschizandrin multiple (12 days), D11-D12

## COc1cc2c(c(OC)c1OC)-c1c(cc(OC)c(OC)c1OC)C[C@H](C)[C@H](C)C2 [deoxyschizandrin]
[1]; 150 mg/kg, multiple vs single dose, rats
  increase of C max of deoxyschizandrin after consecutive 12 days of administration: about 1.5 fold
[1]; NG2201: 150 mg/kg deoxyschizandrin single, D1-D2
  AUMC0→t: 4,088.71 ± 1,056.37 ng. h^2/mL
[1]; NG2202: 150 mg/kg deoxyschizandrin multiple (12 days), D11-D12
  AUMC0→t: 13,360.23 ± 8,009.79 ng. h^2/mL
[1]; oral, 150 mg/kg, NG2201: 150 mg/kg deoxyschizandrin, first day
  AUC(0-t): 786 ± 174 ng·h/mL
[1]; oral, 150 mg/kg, NG2202: after 12 days of continuous administration of 150 mg/kg deoxyschizandrin
  AUC(0-t): 1810 ± 707 ng·h/mL
[1]; [4]
  AUC(0-inf): 806 ± 176 ng·h/mL
  AUC(0-t): 786 ± 174 ng·h/mL
  Cmax: 148 ± 23.2 ng/mL
  MRT: 5.17 ± 0.33 h
  Tmax: 0.92 ± 0.2 h
  half-life: 269 ± 31.8 min
[1]; [5]
  AUC(0-inf): 2410 ± 1720 ng·h/mL
  AUC(0-t): 1810 ± 707 ng·h/mL
  Cmax: 229 ± 54.8 ng/mL
  MRT: 6.95 ± 1.42 h
  Tmax: 1.5 ± 1.23 h
  half-life: 546 ± 470 min
[2]
  adverse reactions: No adverse reactions occurred; also recorded: no adverse effects were demonstrated
[3]; Nominal Conc. 10 ng/mL
  Auto-sampler stability (24h, 4℃) Mean ± SD: 10.23±0.93
  Bench-top stability (8h, RT) Mean ± SD: 10.63±0.83
  Frozen-thaw stability (3 times) Mean ± SD: 10.45±1.01
  Long-term stability (1 month, -80℃) Mean ± SD: 10.37±0.25
[3]; Nominal Conc. 100 ng/mL
  Auto-sampler stability (24h, 4℃) Mean ± SD: 104.49±5.32
  Bench-top stability (8h, RT) Mean ± SD: 102.39±2.82
  Frozen-thaw stability (3 times) Mean ± SD: 111.56±12.48
  Long-term stability (1 month, -80℃) Mean ± SD: 101.86±11.38
[3]; Nominal Conc. 1000 ng/mL
  Auto-sampler stability (24h, 4℃) Mean ± SD: 1024.65±13.44
  Bench-top stability (8h, RT) Mean ± SD: 1014.96±11.94
  Frozen-thaw stability (3 times) Mean ± SD: 1050.50±50.54
  Long-term stability (1 month, -80℃) Mean ± SD: 1012.51±45.24
